In one series the target is T1, S. aureus GyrB (Staphylococcus aureus, UniProt P0A0K8).
T1 construct: purchased Inspiralis Ltd., Norwich, UK
Put plainly: S. aureus GyrB (Gyrase ATPase) inhibition assay, ADP-Glo. The conditions noted are these: for inhibition at 10 µM: read-out: GyrB inhibition rate (%) at 10 μM; for IC50: IC50 for GyrB (µM, mean ± SD), S. aureus Gyrase ATPase inhibition, average of duplicates. In kind it is biochemical. The method, then:
The IC50 values for S. aureus GyrB were determined according to our previously reported protocol.[16] For this assay, the reaction mixture (10 μL) consisted of 5 nM S. aureus Gyrase (Inspiralis Ltd., Norwich, UK), assay buffer [40 mM HEPES-KOH (pH 7.6), 10 mM magnesium acetate, 10 mM dithiothreitol, 50 g/L BSA, and 500 mM potassium glutamate], the test compound (0.01–100 μM), 1% DMSO, 10 nM linear pBR322 DNA, and […]. The target compound was dissolved in DMSO (10 mM). A series of dilutions (0.1–1000 μM) were prepared from the stock solution with the assay buffer and DMSO. The dilutions (1 μL) were respectively added to the PCR tubes along with the buffer (7 μL), the linear pBR322 DNA (0.5 μL), S. aureus Gyrase (0.5 μL), and ATP (1 μL). The PCR tubes were sealed and incubated at 37 °C for 30 min. The ADP-Glo reagent (40 μL) was added to stop the reaction and use up the remaining ATP.
The detection reagent (50 μL) was then added and mixed. After 5 min, the mixture in each PCR tube was put in the well of a 96-well plate and its luminescence was measured by the BioTek Synergy 2 microplate reader. The activity values (%) of S. aureus Gyrase treated by the test compound at different concentrations were determined based on the luminescence. GraphPad Prism version 5 software (GraphPad Software Inc., La Jolla, CA) was used to calculate the IC50 values.

Series [1] concerns methicillin-sensitive S. aureus (MSSA). Put plainly: MIC by broth microdilution, MSSA isolates. The conditions noted are these: Staphylococcus aureus. In kind it is cell-based. As to the method:
All of the bacterial strains used in this study were obtained from the Collection Centre of Pathogen Microorganism of Chinese Academy of Medical Sciences (CAMS-CCPM-A) in China. All of the isolates were stored at −80 °C and streaked on tryptic soy agar (TSA) plates to obtain overnight cultures. The MICs of the test compounds were determined by the broth microdilution method in accordance with the Clinical and Laboratory Standards Institute (CLSI) guidelines.[20] Cation-adjusted Mueller-Hinton broth (CAMHB) was used as the growth medium for MIC assays. Briefly, 100 μL of serially diluted compounds (starting concentrations were 64 μg/mL) in CAMH broth were added to the wells of 96-well microtiter plates. Then, 10 µL of 5 × 10^6 CFU/mL bacterial culture was added to each well. […] The MIC was defined as the lowest concentration of a compound that inhibited visual growth of the bacteria. Vancomycin was set as the positive control for this assay.
On the technique in general: In broth dilution the organism is exposed to a series of concentrations in liquid medium.

The mark [2] stands for this setting: ATCC 29213 / BAA-1708 / BAA-976 / MSSA, ATCC 29213, 15, 18-3, BAA976, BAA1708, span over isolates, read-out: MIC over the five MSSA isolates.
[3] abbreviates: ATCC 29213 / MSSA, MSSA ATCC 29213, read-out: MIC.
Setting [4] is: BAA-976 / MSSA, MSSA BAA976, read-out: MIC.
[5] abbreviates: BAA-1708 / MSSA, MSSA BAA1708, read-out: MIC.

From publication PMC9186351, “Discovery of N-quinazolinone-4-hydroxy-2-quinolone-3-carboxamides as DNA gyrase B-targeted antibacterial agents” (Journal of Enzyme Inhibition and Medicinal Chemistry, 2022) come the findings set out here.

Converted amounts (≈) assume the structure as drawn. “And” between values parts separate entries of the source, which are not always exact repeats. Identical values can stand only once. Like-named read-outs stand apart in the source and are kept apart here. Some results are limits rather than exact numbers.

T1 sequence (P0A0K8 whole entry): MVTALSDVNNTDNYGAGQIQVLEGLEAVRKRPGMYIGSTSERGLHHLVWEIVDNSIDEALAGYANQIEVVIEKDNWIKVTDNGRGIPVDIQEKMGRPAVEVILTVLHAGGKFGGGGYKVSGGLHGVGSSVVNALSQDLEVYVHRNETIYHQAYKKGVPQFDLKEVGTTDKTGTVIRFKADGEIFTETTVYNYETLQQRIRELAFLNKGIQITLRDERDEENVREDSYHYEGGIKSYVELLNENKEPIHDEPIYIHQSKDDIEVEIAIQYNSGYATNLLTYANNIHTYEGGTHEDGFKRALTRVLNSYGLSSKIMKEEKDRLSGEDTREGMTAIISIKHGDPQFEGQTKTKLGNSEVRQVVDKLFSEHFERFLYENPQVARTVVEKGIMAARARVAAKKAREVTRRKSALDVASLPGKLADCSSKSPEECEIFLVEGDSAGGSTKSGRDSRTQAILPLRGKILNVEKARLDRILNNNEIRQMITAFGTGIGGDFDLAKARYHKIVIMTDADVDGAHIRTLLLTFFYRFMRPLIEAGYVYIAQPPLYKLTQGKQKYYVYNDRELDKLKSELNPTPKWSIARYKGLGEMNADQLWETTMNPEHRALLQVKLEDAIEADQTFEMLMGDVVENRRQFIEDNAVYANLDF
T1 sequence (P20831 whole entry, further chain): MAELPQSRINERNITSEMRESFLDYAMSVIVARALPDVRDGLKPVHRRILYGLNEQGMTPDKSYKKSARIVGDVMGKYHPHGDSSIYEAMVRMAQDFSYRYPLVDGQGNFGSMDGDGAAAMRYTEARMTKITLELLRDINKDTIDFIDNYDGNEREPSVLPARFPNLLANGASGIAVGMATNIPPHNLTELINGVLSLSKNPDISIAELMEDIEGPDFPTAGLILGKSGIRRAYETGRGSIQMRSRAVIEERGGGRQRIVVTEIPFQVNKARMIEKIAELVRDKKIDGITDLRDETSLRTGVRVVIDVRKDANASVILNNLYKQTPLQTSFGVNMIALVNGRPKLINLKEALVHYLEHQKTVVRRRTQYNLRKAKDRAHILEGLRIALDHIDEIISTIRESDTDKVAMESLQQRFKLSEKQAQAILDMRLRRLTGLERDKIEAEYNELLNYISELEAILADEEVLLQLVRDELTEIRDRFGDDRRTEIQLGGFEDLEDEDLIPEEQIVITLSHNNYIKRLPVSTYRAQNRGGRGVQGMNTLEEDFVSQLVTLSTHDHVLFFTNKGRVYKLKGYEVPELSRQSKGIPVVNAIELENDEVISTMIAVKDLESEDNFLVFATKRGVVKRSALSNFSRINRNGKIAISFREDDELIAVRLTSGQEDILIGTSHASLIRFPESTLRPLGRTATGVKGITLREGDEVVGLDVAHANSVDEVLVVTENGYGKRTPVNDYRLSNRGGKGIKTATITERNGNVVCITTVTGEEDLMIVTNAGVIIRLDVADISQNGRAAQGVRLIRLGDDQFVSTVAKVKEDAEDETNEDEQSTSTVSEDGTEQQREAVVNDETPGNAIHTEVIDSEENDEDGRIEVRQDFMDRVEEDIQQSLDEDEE

The term inhibition denotes the relative decrease from the control value, in per cent. In the case of `Cc1noc(NC(=O)c2c(O)c3cccc4c3n(c2=O)CCC4)c1C` [AE-641/00628057], the inhibition at 10 µM at S. aureus GyrB was 7%. On to `O=C(Nc1ccccc1-c1ccccc1)c1c(O)c2cccc3c2n(c1=O)CCC3` [AE-641/00629040], for which, at S. aureus GyrB, the inhibition at 10 µM worked out at 11%. For `CCCCCNC(=O)c1c(O)c2ccccc2n(C)c1=O` [AG-690/11232717], the inhibition at 10 µM at S. aureus GyrB was found to be 13%. On the same count and under the same terms, then `CCCCCCn1c(=O)c(C(=O)Nc2ccccc2Br)c(O)c2ccccc21` [AG-690/11232728], with 12%; and `CCCCCC(=O)NNC(=O)c1c(O)c2ccccc2n(CCC)c1=O` [AG-690/11232780], with 3%. Turning to `CCCCCCn1c(=O)c(C(=O)Nc2ccc(Cl)cn2)c(O)c2ccccc21` [AG-690/11557825], on S. aureus GyrB, the inhibition at 10 µM came out at 6%. The same measure, in the same setting: then `CCn1c(=O)c(C(=O)NNC(=O)c2ccccc2Br)c(O)c2ccccc21` [AG-690/11765298], with 45%. Same read-out and setting: then `CCn1c(=O)c(C(=O)NNS(=O)(=O)c2ccc(Br)cc2)c(O)c2ccccc21` [AG-690/11765340], with 10%; and `C=CCn1c(=O)c(C(=O)NNC(=O)Cc2ccncc2)c(O)c2ccccc21` [AG-690/36469055], with 15%.

Turning to `CCCCCCn1c(=O)c(C(=O)Nc2nc(C)cs2)c(O)c2ccccc21` [AG-690/36956124], the inhibition at 10 µM on S. aureus GyrB came to 10%.

Take `CCCn1c(=O)c(C(=O)NNC(=O)Cc2ccccc2)c(O)c2ccccc21` [AG- 690/36956135]: the inhibition at 10 µM at S. aureus GyrB is 6%. Broadly, the IC50 is the concentration that inhibits the measured activity by half. Broadly, the melting point is the temperature, or range, at which the solid turns liquid. `CCCCCc1nc2ccc(Cl)cc2c(=O)n1NC(=O)c1c(O)c2ccccc2n(CC)c1=O` [f2, N-(6-chloro-4-oxo-2-pentylquinazolin-3(4H)-yl)-1-ethyl-4-hydroxy-2-oxo-1,2-dihydroquinoline-3-carboxamide] returned a melting point of 141.5 to 143.1 °C. Moreover, the IC50 at S. aureus GyrB was determined as 1.58 ± 0.06 µM. The corresponding values for `CCCCCc1nc2ccc(C)cc2c(=O)n1NC(=O)c1c(O)c2ccccc2n(CC)c1=O` [f3, N-(6-methyl-4-oxo-2-pentylquinazolin-3(4H)-yl)-1-ethyl-4-hydroxy-2-oxo-1,2-dihydroquinoline-3-carboxamide] are 160.6 to 162.3 °C and 0.83 ± 0.11 µM. As usually defined, the MIC is the smallest concentration in the dilution series that meets the test's criterion for growth inhibition. Regarding `CCCCCc1nc2ccc(OC)cc2c(=O)n1NC(=O)c1c(O)c2ccccc2n(CC)c1=O` [f4, N-(6-methoxy-4-oxo-2-pentylquinazolin-3(4H)-yl)-1-ethyl-4-hydroxy-2-oxo-1,2-dihydroquinoline-3-carboxamide], the melting point is 98.7 to 99.9 °C. Further, on S. aureus GyrB, the IC50 is 0.31 ± 0.07 µM. The MIC in series [1] (setting [2]) is ≥ 32 µg/mL. Besides, in series [1] (setting [3]), the MIC is > 64 µg/mL. The MIC in series [1] (setting [4]) turned out to be 32 µg/mL (≈ 67.2 µM). Besides, in series [1] (setting [5]), the MIC is > 64 µg/mL. Besides, the MIC in series [1] (MSSA, MSSA 15, read-out: MIC) was 64 µg/mL (≈ 134 µM). In series [1] (MSSA, MSSA 18-3, read-out: MIC), the MIC worked out at 64 µg/mL (≈ 134 µM). In the case of `CCCCCc1nc2ccc(C(F)(F)F)cc2c(=O)n1NC(=O)c1c(O)c2ccccc2n(CC)c1=O` [f5, N-(4-oxo-2-pentyl-6-(trifluoromethyl)quinazolin-3(4H)-yl)-1-ethyl-4-hydroxy-2-oxo-1,2-dihydroquinoline-3-carboxamide], the melting point was in the range of 128.3 to 130.2 °C. Also, on S. aureus GyrB, the IC50 is 0.81 ± 0.17 µM. The corresponding values for `CCCCCc1nc2cc(Cl)ccc2c(=O)n1NC(=O)c1c(O)c2ccccc2n(CC)c1=O` [f6, N-(7-chloro-4-oxo-2-pentylquinazolin-3(4H)-yl)-1-ethyl-4-hydroxy-2-oxo-1,2-dihydroquinoline-3-carboxamide] are 128.4 to 130.2 °C and 0.83 ± 0.01 µM. On to `CCCCCc1nc2cc(C)ccc2c(=O)n1NC(=O)c1c(O)c2ccccc2n(CC)c1=O` [f7, N-(7-methyl-4-oxo-2-pentylquinazolin-3(4H)-yl)-1-ethyl-4-hydroxy-2-oxo-1,2-dihydroquinoline-3-carboxamide], for which the melting point lay within 167.2 to 168.4 °C. Besides, the IC50 on S. aureus GyrB was determined as 24.4 ± 4.5 µM. `CCCCCc1nc2cc(OC)ccc2c(=O)n1NC(=O)c1c(O)c2ccccc2n(CC)c1=O` [f8, N-(7-methoxy-4-oxo-2-pentylquinazolin-3(4H)-yl)-1-ethyl-4-hydroxy-2-oxo-1,2-dihydroquinoline-3-carboxamide] came in with a melting point of 146.8 to 147.6 °C. Moreover, the half-maximal inhibitory concentration (IC50) at S. aureus GyrB is 7.9 ± 0.1 µM. In turn, `CCCCCc1nc2cc(OC)c(OC)cc2c(=O)n1NC(=O)c1c(O)c2ccccc2n(CC)c1=O` [f9, N-(6,7-dimethoxy-4-oxo-2-pentylquinazolin-3(4H)-yl)-1-ethyl-4-hydroxy-2-oxo-1,2-dihydroquinoline-3-carboxamide] came in with a melting point of 172.4 to 174.1 °C. The IC50 at S. aureus GyrB is 1.06 ± 0.13 µM.

Molecule `CCCCCc1nc2c(Cl)cccc2c(=O)n1NC(=O)c1c(O)c2ccccc2n(CC)c1=O` [f10, N-(8-chloro-4-oxo-2-pentylquinazolin-3(4H)-yl)-1-ethyl-4-hydroxy-2-oxo-1,2-dihydroquinoline-3-carboxamide] came in with a melting point of 158.6 to 160.4 °C. Besides, at S. aureus GyrB, the IC50 was 9.7 ± 2.1 µM. `CCCCCc1nc2c(C)cccc2c(=O)n1NC(=O)c1c(O)c2ccccc2n(CC)c1=O` [f11, N-(8-methyl-4-oxo-2-pentylquinazolin-3(4H)-yl)-1-ethyl-4-hydroxy-2-oxo-1,2-dihydroquinoline-3-carboxamide] showed a melting point of 142.7 to 144.3 °C. In addition, the IC50 at S. aureus GyrB stood at 0.77 ± 0.02 µM. `CCCCCc1nc2c(OC)cccc2c(=O)n1NC(=O)c1c(O)c2ccccc2n(CC)c1=O` [f12, N-(8-methoxy-4-oxo-2-pentylquinazolin-3(4H)-yl)-1-ethyl-4-hydroxy-2-oxo-1,2-dihydroquinoline-3-carboxamide] yielded a melting point of 178.3 to 180.1 °C. Moreover, the IC50 at S. aureus GyrB is 0.878 µM and 0.88 µM. On to `CCn1c(=O)c(C(=O)Nn2c(C)nc3ccccc3c2=O)c(O)c2ccccc21` [f13, N-(2-methyl-4-oxoquinazolin-3(4H)-yl)-1-ethyl-4-hydroxy-2-oxo-1,2-dihydroquinoline-3-carboxamide], for which the IC50 at S. aureus GyrB was determined as 1.64 ± 0.23 µM.

With `CCc1nc2ccccc2c(=O)n1NC(=O)c1c(O)c2ccccc2n(CC)c1=O` [f14, N-(2-ethyl-4-oxoquinazolin-3(4H)-yl)-1-ethyl-4-hydroxy-2-oxo-1,2-dihydroquinoline-3-carboxamide], the IC50 on S. aureus GyrB came out at 0.28 ± 0.04 µM. For the same molecule, the MIC was ≥ 32 µg/mL in series [1] (setting [2]); > 64 µg/mL in series [1] (setting [3]); 32 µg/mL (≈ 79.1 µM) in series [1] (setting [4]); 64 µg/mL (≈ 158 µM) in series [1] (setting [5]); 64 µg/mL (≈ 158 µM) in series [1] (MSSA, MSSA 15, read-out: MIC); > 64 µg/mL in series [1] (MSSA, MSSA 18-3, read-out: MIC). Turning to `CCCc1nc2ccccc2c(=O)n1NC(=O)c1c(O)c2ccccc2n(CC)c1=O` [f15, N-(4-oxo-2-propylquinazolin-3(4H)-yl)-1-ethyl-4-hydroxy-2-oxo-1,2-dihydroquinoline-3-carboxamide], the melting point was 158.6 to 160.7 °C. In addition, at S. aureus GyrB, the IC50 was 11.9 ± 2.3 µM.

`CCCCc1nc2ccccc2c(=O)n1NC(=O)c1c(O)c2ccccc2n(CC)c1=O` [f16, N-(2-butyl-4-oxoquinazolin-3(4H)-yl)-1-ethyl-4-hydroxy-2-oxo-1,2-dihydroquinoline-3-carboxamide] returned a melting point of 139.8 to 140.5 °C. Moreover, the IC50 at S. aureus GyrB is 2.34 ± 0.34 µM.
